Active and inactive are the calls of the source. The rule behind the calls is not given here.
Assays:
[1] = Retention time of the compound by UPLC-ESI-MS method; format: physicochemical
[2] = test system: HL-60; assay: (§1) Antiproliferative activity against human HL60 cells assessed as cell survival at 25 uM incubated for 48 hrs by CCK8 assay; format: functional
[3] = as §1; format: functional; conditions: HL-60, 48 h, read-out: Survival
[4] = test system: HL-60; assay: Induction of apoptosis in human HL60 cells assessed as induction of morphological changes at 25 uM incubated for 48 hrs by Hoechst-33342 staining assay; format: functional, cell-based
[5] = test system: HL-60; assay: Induction of apoptosis in human HL60 cells at 25 uM incubated for 48 hrs by Giemsa staining assay; format: functional, cell-based

SMILES | Retention_time [1] | Activity [2] | viability at 25 µM [3] | Activity [4] | Activity [5]
COc1c(O[C@@H]2O[C@H](CO)[C@@H](O)[C@H](O)[C@H]2O)ccc2c1O/C(=C\c1ccc(O)c(O)c1)C2=O | 16.07 min | inactive | – | – | –
COc1c(O)ccc2c1O[C@H](c1ccc(O)c(O)c1)CC2=O | 18.52 min | inactive | – | – | –
O=C(/C=C/c1ccc(O)c(O)c1)c1ccc(O)c(O)c1O | 20.14 min | inactive | – | – | –
COc1c(O)ccc(C(=O)/C=C/c2ccc(O)c(O)c2)c1O | 30.97 min | inactive | – | – | –
COc1ccc(/C=C/C(=O)c2ccc(O)c(OC)c2O)cc1O | 41.24 min | – | 23.8% | Active | Active
COc1c(O)ccc2c1O/C(=C\c1ccc(O)c(O)c1)C2=O | 25.04 min | inactive | – | – | –
CC(=O)O[C@H]1C(=O)[C@@]2(C)[C@H]([C@H](OC(=O)c3ccccc3)[C@]3(O)C[C@H](OC(=O)[C@H](O)[C@@H](NC(=O)c4ccccc4)c4ccccc4)C(C)=C1C3(C)C)[C@]1(OC(C)=O)CO[C@@H]1C[C@@H]2O [PACLITAXEL] | – | – | 18.9% | – | –
